For 32 molecules, IC50 results are on record in US20130040935A1, “CYCLIC KETO-ENOLS FOR THERAPY” (BAYER INTELLECTUAL PROPERTY GMBH, priority 2010, published 2013).

Experiment [1] concerns the target T1, human ACC1 (acetyl-coenzyme A carboxylase alpha transcript variant 1) (Homo sapiens, UniProt Q13085).
T1 construct: FLAG (C); made in house; host or cells: baculovirus-infected insect cells (Hi5)
In words: Human ACC1 enzyme assay, Assay B1 (ADP-Glo). Type of experiment: biochemical. (In general: ADP-Glo first removes unused ATP, then detects ADP through luciferase.)

For experiment [2], the target named is human ACC2 (acetyl-coenzyme A carboxylase 2) (Homo sapiens, UniProt O00763). As to the kind of experiment: Human ACC2 enzyme assay, Assay B2 (ADP-Glo).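 Note: human ACC2 activity read as ADP product, detected by luciferase glow luminescence after residual ATP removal, enzyme near 2 ng/µl in linear range, detection steps at 22 °C.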
Sequence of human ACC2 (acetyl-coenzyme A carboxylase 2) (O00763 27-2458 limits assumed): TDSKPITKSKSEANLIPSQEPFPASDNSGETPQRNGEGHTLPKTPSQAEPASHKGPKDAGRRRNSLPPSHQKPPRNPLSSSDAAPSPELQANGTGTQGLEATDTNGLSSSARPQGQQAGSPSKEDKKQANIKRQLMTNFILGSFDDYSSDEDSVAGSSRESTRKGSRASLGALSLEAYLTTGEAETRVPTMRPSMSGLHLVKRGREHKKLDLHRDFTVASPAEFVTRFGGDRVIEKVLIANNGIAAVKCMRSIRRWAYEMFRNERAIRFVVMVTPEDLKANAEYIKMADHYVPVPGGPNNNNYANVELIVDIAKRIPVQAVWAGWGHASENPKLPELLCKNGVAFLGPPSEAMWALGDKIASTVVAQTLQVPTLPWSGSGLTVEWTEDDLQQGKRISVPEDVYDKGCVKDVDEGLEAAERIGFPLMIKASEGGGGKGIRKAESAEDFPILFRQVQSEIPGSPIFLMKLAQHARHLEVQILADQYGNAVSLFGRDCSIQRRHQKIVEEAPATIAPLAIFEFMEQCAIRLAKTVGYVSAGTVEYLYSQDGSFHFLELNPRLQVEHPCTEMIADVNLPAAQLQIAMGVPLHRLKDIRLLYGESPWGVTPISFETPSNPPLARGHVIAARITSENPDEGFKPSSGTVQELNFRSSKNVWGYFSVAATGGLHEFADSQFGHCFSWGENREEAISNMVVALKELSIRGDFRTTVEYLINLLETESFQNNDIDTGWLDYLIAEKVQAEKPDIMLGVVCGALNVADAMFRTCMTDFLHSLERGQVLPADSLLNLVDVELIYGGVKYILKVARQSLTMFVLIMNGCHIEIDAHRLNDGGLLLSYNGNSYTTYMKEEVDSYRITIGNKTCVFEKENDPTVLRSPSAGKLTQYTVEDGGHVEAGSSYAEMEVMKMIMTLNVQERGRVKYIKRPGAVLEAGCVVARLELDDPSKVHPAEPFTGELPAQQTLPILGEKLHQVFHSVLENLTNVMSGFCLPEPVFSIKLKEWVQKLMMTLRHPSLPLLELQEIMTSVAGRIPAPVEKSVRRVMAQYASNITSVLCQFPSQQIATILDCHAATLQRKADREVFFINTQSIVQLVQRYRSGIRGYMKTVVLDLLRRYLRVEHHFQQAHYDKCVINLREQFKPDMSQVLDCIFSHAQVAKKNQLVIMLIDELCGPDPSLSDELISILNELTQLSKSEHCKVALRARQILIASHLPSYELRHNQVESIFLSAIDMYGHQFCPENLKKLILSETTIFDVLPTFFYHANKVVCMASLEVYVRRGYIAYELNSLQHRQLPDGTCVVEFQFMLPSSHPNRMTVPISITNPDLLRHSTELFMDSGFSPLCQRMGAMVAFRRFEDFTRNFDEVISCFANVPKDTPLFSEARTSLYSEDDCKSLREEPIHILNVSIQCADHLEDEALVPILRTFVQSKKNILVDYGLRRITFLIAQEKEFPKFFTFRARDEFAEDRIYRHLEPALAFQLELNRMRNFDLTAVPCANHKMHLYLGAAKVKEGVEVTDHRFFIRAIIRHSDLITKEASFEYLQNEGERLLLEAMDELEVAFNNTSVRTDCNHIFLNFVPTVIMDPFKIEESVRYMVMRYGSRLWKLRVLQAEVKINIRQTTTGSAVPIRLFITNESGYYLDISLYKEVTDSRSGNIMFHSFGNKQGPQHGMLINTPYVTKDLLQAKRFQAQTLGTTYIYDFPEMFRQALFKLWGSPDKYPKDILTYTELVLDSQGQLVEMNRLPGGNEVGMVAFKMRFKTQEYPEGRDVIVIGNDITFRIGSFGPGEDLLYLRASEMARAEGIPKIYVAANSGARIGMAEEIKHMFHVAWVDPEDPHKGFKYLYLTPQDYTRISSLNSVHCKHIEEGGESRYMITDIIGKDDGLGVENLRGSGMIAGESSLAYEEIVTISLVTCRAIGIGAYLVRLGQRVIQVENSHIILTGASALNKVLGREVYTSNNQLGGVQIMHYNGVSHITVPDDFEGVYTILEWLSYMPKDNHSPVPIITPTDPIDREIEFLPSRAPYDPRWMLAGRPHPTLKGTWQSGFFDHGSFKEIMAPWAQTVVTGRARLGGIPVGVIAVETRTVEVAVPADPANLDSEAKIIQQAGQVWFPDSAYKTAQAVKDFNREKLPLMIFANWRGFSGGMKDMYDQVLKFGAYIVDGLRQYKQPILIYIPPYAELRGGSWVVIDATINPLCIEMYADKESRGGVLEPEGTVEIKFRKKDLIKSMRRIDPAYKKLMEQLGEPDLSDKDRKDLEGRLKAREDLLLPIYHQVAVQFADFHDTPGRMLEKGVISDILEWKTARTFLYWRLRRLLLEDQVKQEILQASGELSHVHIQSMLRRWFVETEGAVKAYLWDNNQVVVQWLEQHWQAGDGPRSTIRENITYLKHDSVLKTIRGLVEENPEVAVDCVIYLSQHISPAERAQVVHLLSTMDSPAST
[3] abbreviates: Assay B1, ADP-Glo, read-out: ACC 1 (=B1) IC50.
Setting [4] is: Assay B1, read-out: ACC 1 (=B1) IC50.

Broadly, the IC50 is the point on the concentration scale where inhibition reaches its midpoint.

Read-outs that look alike come from different tables or passages of the source.

As to `COCCC1CCCC2(C1)OC(=O)C(c1cc(-c3ccc(Cl)cc3)ccc1Cl)=C2O` (stereo not shown) [2-19, 3-(4,4′-dichlorobiphenyl-3-yl)-4-hydroxy-7-(2 methoxyethyl)-1-oxaspiro[4.5]dec-3-en-2-one], the half-inhibitory concentration (IC50) in experiment [1] (setting [3]) came to 812 nM; in experiment [2] it was 13600 nM.
Turning to `O=c1[nH]c2cc(Cl)ccc2c(O)c1-c1cc(-c2ccc(Cl)cc2)ccc1Cl` [9-13, 7-chloro-3-(4,4′-dichlorobiphenyl-3-yl)-4-hydroxyquinolin-2(1H)-one], the IC50 was determined as 191 nM in experiment [1] (setting [4]) and 3960 nM in experiment [2].
As to `COC1CCCC2(C1)OC(=O)C(c1cc(-c3ccc(Cl)cc3)ccc1C)=C2O` (stereo not shown) [2-14, 3-(4′-chloro-4-methylbiphenyl-3-yl)-4-hydroxy-7-methoxy-1-oxaspiro[4.5]dec-3-en-2-one], the IC50 in experiment [1] (setting [3]) was 772 nM; in experiment [2], > 20000 nM.
For `Cc1cc(C)c(-c2ccc(Cl)cc2)c(C)c1C1=C(O)C(C)(C)OC1=O` [2-5, 3-(4′-chloro-2,4,6-trimethylbiphenyl-3-yl)-4-hydroxy-5,5-dimethylfuran-2(5H)-one], the IC50 in experiment [1] was determined as 1260 nM; in experiment [2], 7340 nM.
As for `Cc1cc(C)c(-c2ccc(Cl)cc2)c(C)c1C1=C(O)C2(CCCC2)OC1=O` [2-49, 3-(4′-chloro-2,4,6-trimethylbiphenyl-3-yl)-4-hydroxy-1-oxaspiro[4.4]non-3-en-2-one], the values for the concentration for half-maximal inhibition (IC50) in experiment [1] and in experiment [2] were ≥ 20000 nM and > 20000 nM, respectively.
In the same order, the values of `Cc1ccc(-c2ccc(Cl)cc2)c(C)c1C1C(=O)N2CCOCCN2C1=O` [8-8, 8-(4′-chloro-2,4-dimethylbiphenyl-3-yl)tetrahydro-7H-pyrazolo[1,2-d][1,4,5]oxadiazepine-7,9(8H)-dione] are 1310 nM and > 20000 nM.
In the same order, the values of `Cc1ccc(-c2ccc(Cl)cc2)cc1C1=C(O)C2(CCCCCC2)OC1=O` [2-38, 3-(4′-chloro-4-methylbiphenyl-3-yl)-4-hydroxy-1-oxaspiro[4.6]undec-3-en-2-one] are 393 nM and 7380 nM.
For the molecule `Cc1ccc(-c2ccc(Cl)cc2)cc1C1=C(O)C2(CCCC(C)C2)NC1=O` (stereo not shown) [1-82, 3-(4′-chloro-4-methylbiphenyl-3-yl)-4-hydroxy-7-methyl-1-azaspiro[4.5]dec-3-en-2-one], the IC50 in experiment [1] (setting [4]) was 539 nM; in experiment [2], 1320 nM.
As to `Cc1ccc(-c2ccc(Cl)cc2)cc1C1=C(O)C2(CCC3(CC2)OCCCO3)NC1=O` [1-59, 3-(4′-chloro-4-methylbiphenyl-3-yl)-4-hydroxy-9,13-dioxa-1-azadispiro[4.2.5.2]pentadec-3-en-2-one], the 50% inhibitory concentration (IC50) in experiment [1] was 261 nM; in experiment [2] it was 11600 nM.
In the case of `Cc1ccc(-c2ccc(Cl)cc2)cc1C1=C(O)C2(CC2)NC1=O` [1-84, 6-(4′-chloro-4-methylbiphenyl-3-yl)-7-hydroxy-4-azaspiro[2.4]hept-6-en-5-one], the figures for the IC50 in experiment [1] (setting [4]) and in experiment [2] were 650 nM and > 20000 nM, respectively.
Regarding `CCCC1CCC2(CC1)OC(=O)C(c1cc(-c3ccc(Cl)cc3)ccc1C)=C2O` (stereo not shown) [2-36, 3-(4′-chloro-4-methylbiphenyl-3-yl)-4-hydroxy-8-propyl-1-oxaspiro[4.5]dec-3-en-2-one], the IC50 was found to be 447 nM in experiment [1] and 2410 nM in experiment [2].
For the molecule `Cc1ccc(-c2ccc(Cl)cc2)cc1C1=C(O)C(C)N(C(C)C)C1=O` (stereo not shown) [1-19, 3-(4′-chloro-4-methylbiphenyl-3-yl)-4-hydroxy-5-methyl-1-(propan-2-yl)-1,5-dihydro-2H-pyrrol-2-one], the results for the IC50 in experiment [1] (setting [4]) and in experiment [2] were 532 nM and ≥ 20000 nM, respectively.
Consider `O=C1NC2(CCC3(CC2)OCCCO3)C(O)=C1c1cc(-c2ccc(Cl)cc2)ccc1Cl` [1-58, 3-(4,4′-dichlorobiphenyl-3-yl)-4-hydroxy-9,13-dioxa-1-azadispiro[4.2.5.2]pentadec-3-en-2-one], for which the values for the IC50 in experiment [1] and in experiment [2] were 434 nM and 19900 nM, respectively.
In the same order, the values of `CC1COC2(CCC3(CC2)NC(=O)C(c2cc(-c4ccc(Cl)cc4)ccc2Cl)=C3O)O1` (stereo not shown) [1-68, 11-(4,4′-dichlorobiphenyl-3-yl)-12-hydroxy-2-methyl-1,4-dioxa-9-azadispiro[4.2.4.2]tetradec-11-en-10-one] are 547 nM and 5900 nM.
`COCC1(C)NC(=O)C(c2cc(-c3ccc(Cl)cc3)ccc2C)=C1O` (stereo not shown) [1-46, 3-(4′-chloro-4-methylbiphenyl-3-yl)-4-hydroxy-5-(methoxymethyl)-5-methyl-1,5-dihydro-2H-pyrrol-2-one]: the half-maximal inhibitory concentration (IC50) in experiment [1] is 1130 nM; in experiment [2] it was > 20000 nM.
In the case of `Cc1ccc(-c2ccc(Cl)cc2)cc1C1=C(O)C(C)(C2CC2)NC1=O` (stereo not shown) [1-86, 3-(4′-chloro-4-methylbiphenyl-3-yl)-5-cyclopropyl-4-hydroxy-5-methyl-1,5-dihydro-2H-pyrrol-2-one], the results for the IC50 in experiment [1] (setting [4]) and in experiment [2] were 575 nM and 6120 nM, respectively.
As for `CCC1CCC2(CC1)OC(=O)C(c1cc(-c3ccc(Cl)cc3)ccc1C)=C2O` (stereo not shown) [2-1, 3-(4′-chloro-4-methylbiphenyl-3-yl)-8-ethyl-4-hydroxy-1-oxaspiro[4.5]dec-3-en-2-one], the half-inhibitory concentration (IC50) is 1140 nM in experiment [1] (setting [3]) and 15200 nM in experiment [2].
As to `Cc1ccc(-c2ccc(Cl)cc2)cc1C1=C(O)C2(CCC3(CC2)OCC(C)CO3)NC1=O` (stereo not shown) [1-66, 3-(4′-chloro-4-methylbiphenyl-3-yl)-4-hydroxy-11-methyl-9,13-dioxa-1-azadispiro[4.2.5.2]pentadec-3-en-2-one], the values for the IC50 in experiment [1] and in experiment [2] were 493 nM and 3130 nM, respectively.
For `Cc1ccc(-c2ccc(Cl)cc2)cc1C1=C(O)C2(CCC3(CC2)OC(C)C(C)O3)NC1=O` (stereo not shown) [1-64, 11-(4′-chloro-4-methylbiphenyl-3-yl)-12-hydroxy-2,3-dimethyl-1,4-dioxa-9-azadispiro[4.2.4.2]tetradec-11-en-10-one] the same measures were 571 nM and > 20000 nM.
In the same order, the values of `CC[C@]1(OC)CC[C@@]2(CC1)NC(=O)C(c1c(C)ccc(-c3ccc(Cl)cc3)c1C)=C2O` [1-88, (5r,8r)-3-(4′-chloro-2,4-dimethylbiphenyl-3-yl)-8-ethyl-4-hydroxy-8-methoxy-1-azaspiro[4.5]dec-3-en-2-one] are 452 nM and 11700 nM.
In the same order, the values of `Cc1ccc(-c2ccc(F)cc2)c(C)c1C1=C(O)C2(CCC(OCC(F)(F)F)CC2)NC1=O` (stereo not shown) [1-31, 3-(4′-fluoro-2,4-dimethylbiphenyl-3-yl)-4-hydroxy-8-(2,2,2-trifluoroethoxy)-1-azaspiro[4.5]dec-3-en-2-one] are 811 nM and 7890 nM.
Take `CC1COC2(CCC3(CC2)NC(=O)C(c2cc(-c4ccc(Cl)cc4)ccc2Cl)=C3O)OC1` (stereo not shown) [1-69, 3-(4,4′-dichlorobiphenyl-3-yl)-4-hydroxy-11-methyl-9,13-dioxa-1-azadispiro[4.2.5.2]pentadec-3-en-2-one]: the IC50 in experiment [1] (setting [4]) is 838 nM; in experiment [2], > 20000 nM.
Turning to `Cc1ccc(-c2ccc(F)cc2)c(C)c1C1=C(O)C2(CCCCC2)NC1=O` [1-40, 3-(4′-fluoro-2,4-dimethylbiphenyl-3-yl)-4-hydroxy-1-azaspiro[4.5]dec-3-en-2-one], the figures for the concentration for half-maximal inhibition (IC50) in experiment [1] (setting [4]) and in experiment [2] were 1320 nM and > 20000 nM, respectively.
Take `Cc1ccc(-c2ccc(Cl)cc2)cc1C1=C(O)C(C)(C(C)C)NC1=O` (stereo not shown) [1-78, 3-(4′-chloro-4-methylbiphenyl-3-yl)-4-hydroxy-5-methyl-5-(propan-2-yl)-1,5-dihydro-2H-pyrrol-2-one]: the IC50 worked out at 958 nM in experiment [1] (setting [4]) and 8120 nM in experiment [2].
For `COC1CCC2(CC1)OC(=O)C(c1cc(-c3ccc(Cl)cc3)ccc1C)=C2O` (stereo not shown) [2-39, 3-(4′-chloro-4-methylbiphenyl-3-yl)-4-hydroxy-8-methoxy-1-oxaspiro[4.5]dec-3-en-2-one], the IC50 in experiment [1] (setting [3]) stood at 162 nM; in experiment [2] it was 5270 nM.
`Cc1cc(C)c(-c2ccc(Cl)cc2)cc1C1=C(O)C2(CCOCC2)OC1=O` [2-41, 3-(4′-chloro-4,6-dimethylbiphenyl-3-yl)-4-hydroxy-1,8-dioxaspiro[4.5]dec-3-en-2-one]: the figures for the IC50 in experiment [1] (setting [3]) and in experiment [2] were 425 nM and 6590 nM, respectively.
As to `CCOC1CCC2(CC1)NC(=O)C(c1c(C)cc(C)c(-c3ccc(Cl)cc3)c1C)=C2O` (stereo not shown) [1-75, 3-(4′-chloro-2,4,6-trimethylbiphenyl-3-yl)-8-ethoxy-4-hydroxy-1-azaspiro[4.5]dec-3-en-2-one], the half-maximal inhibitory concentration (IC50) in experiment [1] is 5680 nM; in experiment [2], 803 nM.
Consider `Cc1ccc(-c2ccc(Cl)cc2)cc1C1=C(O)CN(C2CC2)C1=O` [1-18, 3-(4′-chloro-4-methylbiphenyl-3-yl)-1-cyclopropyl-4-hydroxy-1,5-dihydro-2H-pyrrol-2-one], for which the values for the half-maximal inhibitory concentration (IC50) in experiment [1] (setting [4]) and in experiment [2] were 982 nM and 16400 nM, respectively.
With `Cc1ccc(-c2ccc(Cl)cc2)cc1C1=C(O)C2(CCC3(CC2)OCC(C)(C)CO3)NC1=O` [1-67, 3-(4′-chloro-4-methylbiphenyl-3-yl)-4-hydroxy-11,11-dimethyl-9,13-dioxa-1-azadispiro[4.2.5.2]pentadec-3-en-2-one], the IC50 in experiment [1] (setting [4]) came out at 918 nM; in experiment [2], 5200 nM.
As to `Cc1ccc(-c2ccc(Cl)cc2)cc1C1=C(O)C2(CCC3(CCCO3)CC2)OC1=O` (stereo not shown) [2-29, 3-(4′-chloro-4-methylbiphenyl-3-yl)-4-hydroxy-1,9-dioxadispiro[4.2.4.2]tetradec-3-en-2-one], the half-maximal inhibitory concentration (IC50) in experiment [1] (setting [3]) was 206 nM; in experiment [2], 3000 nM.
Regarding `COCCC1CCCC2(C1)NC(=O)C(c1c(C)ccc(-c3ccc(Cl)cc3)c1C)=C2O` (stereo not shown) [1-55, 3-(4′-chloro-2,4-dimethylbiphenyl-3-yl)-4-hydroxy-7-(2-methoxyethyl)-1-azaspiro[4.5]dec-3-en-2-one], the IC50 in experiment [1] (setting [4]) was 924 nM; in experiment [2] it was 3290 nM.
In the same order, the values of `CCOC1CCCC2(C1)NC(=O)C(c1c(C)ccc(-c3ccc(Cl)cc3)c1C)=C2O` (stereo not shown) [1-73, 3-(4′-chloro-2,4-dimethylbiphenyl-3-yl)-7-ethoxy-4-hydroxy-1-azaspiro[4.5]dec-3-en-2-one] are 563 nM and > 20000 nM.
